These results are taken from patent publication US20250100993A1, “2-SUBSTITUTED THIAZOLE HSD17B13 INHIBITORS AND USES THEREOF” (Inipharm, Inc., priority 2022, published 2025).

Common to all, as to format: biochemical
The target of one experiment is HSD17B2 (Homo sapiens (Human), UniProt P37059). The experiment is described as follows: HSD17B2 activity via detection of NADH product (NAD-Glo luminescence). The following applies: selectivity for HSD17B13 over HSD17B2. The procedure:
The fluorescence based detection assay monitors the conversion of the co-factor NAD^+ to NADH, which occurs coincident with the conversion of estradiol to estrone by HSD17B2. These assays were performed in 384 well plates (Greiner V-shape PP-microplate). The 20 μl reaction volume contained: 0.7 μM estradiol (E2); 6 mM NAD^+ (Sigma); 250 nM HSD17B2 enzyme (Origene; Cat #TP303293); 0.25 M potassium phosphate buffer pH 7.4, 0.75% vehicle (DMSO). Reactions were incubated for 2 hours at 37° C., and the reaction was stopped by freezing the reaction plates at −80° C. Zero time samples were frozen immediately.
The conversion of NAD^+ to NADH was quantitated using NAD-Glo kits (Promega; Cat #G9062) according to the manufacturers' instructions. A volume of 15 μL of enzyme reaction mixture was added to 15 μL of reconstituted Glo reagent, and the plates were incubated for 30 minutes at room temperature. Luminescence was quantitated on a Tecan Spark Reader®. A standard curve of NADH ([…]) in potassium phosphate buffer pH 7.4/1% DMSO was run on each plate.
Activity of the enzyme in the absence of E2 was used to evaluate specificity of conversion. Enzyme activity in the presence of test samples was expressed as a percentage of the uninhibited enzyme in the presence of 1% DMSO vehicle only, and was plotted versus inhibitor concentration. Non-linear regression was performed using a four-parameter logistic model and GraphPad Prism software. All assessments were undertaken in duplicate evaluations.

The next experiment addresses HSD17B14 (Homo sapiens (Human), UniProt Q9BPX1). The experiment is described as follows: LC/MS estrone detection assay for HSD17B14 activity (estradiol to estrone). The following applies: selectivity for HSD17B13 over HSD17B14. The procedure:
The liquid chromatography/mass spectrometry (LC/MS) estrone detection assay monitors the conversion of estradiol to estrone by HSD17B14. This assay was undertaken in a 96 well plates (Eppendorf deep well), in an 80 μl reaction volume containing: 8 μM of estradiol (E2; Cayman); 4 mM NAD+(Sigma); 120 nM HSD17B14 enzyme (in-house E. coli expressed His-tagged, purified, soluble protein); 1M potassium phosphate buffer pH 7.4, and 1.2% vehicle (DMSO). Reactions were incubated for 2 hours at 37° C. Estradiol (E2) conversion to estrone (E1) was quantitated by LC-MS/MS based analyte detection for E1 using LCMS grade reagents.
Reactions were terminated by the addition of two volumes of acetonitrile (MeCN; LCMS grade) containing deuterated (D4)-E1 used as internal standard (Clear Synth; 500 ng/mL final concentration). Samples were applied to pre-prepared Bond Elut-C18 extraction cartridges (3 mL; Agilent). The cartridges were washed with 1.5 mL water followed by 1.5 mL 5% aqueous methanol, and dried for 5 minutes under vacuum. They were then eluted with 4.5 mL MeCN. The eluates were dried under nitrogen and re-suspended in 200 μL of 60% methanol (LCMS grade) before submission for analysis. Standard curves of E2 and E1 in 4% DMSO were included for quantification.
Analysis of samples was performed on a XBridge BEH C18 column (Waters) using 0.1% Diethyl Amine in MeCN (mobile phase A) and 0.1% Diethyl Amine in milli-Q water (mobile phase B) in a 3 min gradient from 0-25% B. Analytes were detected in negative mode using MRM analysis, with E2 having a RT of 1.89 min and E1 having a RT of 2.07 min. Activity of the enzyme in the absence of NAD+ was used to evaluate specificity of conversion. Enzyme activity in the presence of test samples was expressed as a percentage of the uninhibited enzyme in the presence of 1.2% DMSO vehicle only, and plotted versus inhibitor concentration. Non-linear regression was performed using a four-parameter logistic model and GraphPad Prism software. All assessments were undertaken in duplicate evaluations, which were pooled during the extraction process and subsequently injected as duplicates for LC-MS/MS analysis.

The target of a further experiment is HSD17B13 (Homo sapiens (Human), UniProt Q7Z5P4). As to the kind of experiment: LC/MS estrone detection assay for HSD17B13 activity (estradiol to estrone). The following applies: estradiol substrate, LCMS; read-out: HSD17B13 Inhibition_Estradiol Substrate_LCMS: Ki. The essentials: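 His-tagged E. coli-expressed enzyme (30 nM) with 4 μM estradiol and 6 mM NAD+ in potassium phosphate pH 7.4, 0.5% DMSO, 2 h at 26.5° C. Estrone formation quantified by LC-MS/MS against D4-estrone standard; activity as % of uninhibited, four-parameter fit, duplicates.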

Where only a bound is given, the exact number is not on record here.

Chain of HSD17B14 (Q9BPX1 whole entry): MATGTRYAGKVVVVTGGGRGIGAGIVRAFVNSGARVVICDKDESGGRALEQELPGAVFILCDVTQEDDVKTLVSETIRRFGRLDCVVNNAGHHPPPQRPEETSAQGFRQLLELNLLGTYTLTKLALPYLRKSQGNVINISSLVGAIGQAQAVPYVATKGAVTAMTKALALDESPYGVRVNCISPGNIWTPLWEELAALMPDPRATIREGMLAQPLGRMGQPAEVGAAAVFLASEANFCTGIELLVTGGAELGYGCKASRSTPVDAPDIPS
Chain of HSD17B13 (Q7Z5P4 20-300): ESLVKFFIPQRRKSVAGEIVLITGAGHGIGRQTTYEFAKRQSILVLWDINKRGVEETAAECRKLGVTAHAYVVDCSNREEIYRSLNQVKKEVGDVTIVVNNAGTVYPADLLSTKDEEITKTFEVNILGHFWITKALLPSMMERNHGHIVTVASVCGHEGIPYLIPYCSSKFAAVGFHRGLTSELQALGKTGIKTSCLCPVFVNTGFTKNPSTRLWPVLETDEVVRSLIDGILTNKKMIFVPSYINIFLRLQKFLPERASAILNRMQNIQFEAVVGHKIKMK
Chain of HSD17B2 (P37059 whole entry): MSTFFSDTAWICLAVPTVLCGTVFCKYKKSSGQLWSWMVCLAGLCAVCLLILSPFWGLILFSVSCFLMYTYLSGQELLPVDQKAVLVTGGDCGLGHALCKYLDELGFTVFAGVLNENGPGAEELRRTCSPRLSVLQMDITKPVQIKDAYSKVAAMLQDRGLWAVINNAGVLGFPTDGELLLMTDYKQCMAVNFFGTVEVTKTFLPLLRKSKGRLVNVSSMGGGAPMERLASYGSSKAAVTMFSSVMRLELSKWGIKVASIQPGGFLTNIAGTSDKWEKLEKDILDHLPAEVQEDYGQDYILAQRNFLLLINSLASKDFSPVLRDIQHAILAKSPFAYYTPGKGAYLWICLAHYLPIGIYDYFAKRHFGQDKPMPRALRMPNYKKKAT

As to `O=C(Nc1sc(-c2cccnc2)nc1C(=O)NCc1ccccc1C(F)(F)F)c1cc(Cl)c(O)c(Cl)c1` [Example 61], the HSD17B2 fold selectivity on HSD17B2 amounted to 64 fold. The HSD17B14 fold selectivity at HSD17B14 was over 397 fold. Besides, the Ki (commonly a measure of affinity in units of concentration, obtained from inhibition or displacement) at HSD17B13 was at most 0.05 µM.

On HSD17B2, `O=C(Nc1sc(-c2ccccc2)nc1C(=O)NCc1ccccc1C(F)(F)F)c1cc(Cl)c(O)c(Cl)c1` [Example 62] gave an HSD17B2 fold selectivity of 204 fold. In addition, the inhibitory constant (Ki) on HSD17B13 is at most 0.05 µM.

Consider `O=C(Nc1sc(-c2ccccc2F)nc1C(=O)NCc1ccccc1C(F)(F)F)c1cc(Cl)c(O)c(Cl)c1` [Example 63], for which the HSD17B2 fold selectivity at HSD17B2 turned out to be 192 fold. In addition, the Ki at HSD17B13 is at most 0.05 µM.

At HSD17B2, `O=C(Nc1sc(-c2ccccc2F)nc1C(=O)NCc1ccccc1C(F)(F)F)c1cc(F)c(O)c(Cl)c1` [Example 64] had an HSD17B2 fold selectivity of 115 fold. This compound also came in with an HSD17B14 fold selectivity at HSD17B14 of over 855 fold. Also, the Ki on HSD17B13 was at most 0.05 µM.

With `O=C(Nc1sc(-c2ccccc2Cl)nc1C(=O)NCc1ccccc1C(F)(F)F)c1cc(Cl)c(O)c(Cl)c1` [Example 65], the HSD17B2 fold selectivity at HSD17B2 is 225 fold. For the same compound, the Ki at HSD17B13 was at most 0.05 µM.

`Cn1cc(-c2nc(C(=O)NCc3ccccc3C(F)(F)F)c(NC(=O)c3cc(Cl)c(O)c(Cl)n3)s2)cn1` [Example 66] yielded an HSD17B2 fold selectivity at HSD17B2 of 36 fold. Further, the Ki on HSD17B13 lay within 0.05 to 0.1 µM.

`O=C(Nc1sc(-c2ccccc2Cl)nc1C(=O)NCc1ccccc1C(F)(F)F)c1cc(Cl)c(O)c(Cl)n1` [Example 67] yielded an HSD17B2 fold selectivity at HSD17B2 of 513 fold. Moreover, the inhibition constant (Ki) on HSD17B13 is at most 0.05 µM.

Compound `O=C(Nc1sc(-c2cncnc2)nc1C(=O)NCc1ccccc1C(F)(F)F)c1cc(Cl)c(O)c(Cl)n1` [Example 68] showed an HSD17B2 fold selectivity on HSD17B2 of 48 fold. The inhibition constant Ki on HSD17B13 is 0.05 to 0.1 µM.

In turn, `O=C(Nc1sc(-c2ccncc2)nc1C(=O)NCc1ccccc1C(F)(F)F)c1cc(Cl)c(O)c(Cl)n1` [Example 70] yielded an HSD17B2 fold selectivity at HSD17B2 of 107 fold. Moreover, the Ki at HSD17B13 was at most 0.05 µM.

`CS(=O)(=O)c1ccc(-c2nc(C(=O)NCc3ccccc3C(F)(F)F)c(NC(=O)c3cc(Cl)c(O)c(Cl)n3)s2)cc1` [Example 73] gave an HSD17B2 fold selectivity on HSD17B2 of 175 fold. In addition, the HSD17B14 fold selectivity on HSD17B14 is reported as over 646 fold. Further, the Ki at HSD17B13 is at most 0.05 µM.

In turn, `O=C(Nc1sc(N2CCS(=O)(=O)CC2)nc1C(=O)NCc1ccccc1C(F)(F)F)c1cc(Cl)c(O)c(Cl)n1` [Example 78, 5-(4,6-dichloro-5-hydroxypicolinamido)-2-(1,1-dioxidothiomorpholino)-N-(2-(trifluoromethyl)benzyl)thiazole-4-carboxamide] registered an HSD17B2 fold selectivity at HSD17B2 of 10 fold. Moreover, the HSD17B14 fold selectivity on HSD17B14 is listed as over 180 fold. For the same compound, on HSD17B13, the Ki is 0.05 to 0.1 µM.

Consider `O=C(Nc1sc(C2=CCCCC2)nc1C(=O)NCc1ccccc1C(F)(F)F)c1cc(Cl)c(O)c(Cl)n1` [Example 88], for which the HSD17B2 fold selectivity on HSD17B2 was 53 fold. Also, the inhibitory constant (Ki) at HSD17B13 was at most 0.05 µM.

For the compound `O=C(Nc1sc(-c2cncc(F)c2)nc1C(=O)NCc1ccccc1C(F)(F)F)c1cc(F)c(O)c(Cl)c1` [Example 90], at HSD17B2, the HSD17B2 fold selectivity worked out at 107 fold. On HSD17B14, this compound gave an HSD17B14 fold selectivity of over 797 fold. Also, the Ki at HSD17B13 was at most 0.05 µM.

For `CS(=O)(=O)c1ccccc1-c1nc(C(=O)NCc2ccccc2C(F)(F)F)c(NC(=O)c2cc(Cl)c(O)c(Cl)c2)s1` [Example 91], the HSD17B2 fold selectivity on HSD17B2 is listed as 24 fold. The compound also had an HSD17B14 fold selectivity on HSD17B14 of 76 fold. Besides, at HSD17B13, the inhibition constant Ki was 0.05 to 0.1 µM.

In turn, `CS(=O)(=O)c1ccccc1-c1nc(C(=O)NCc2ccccc2C(F)(F)F)c(NC(=O)c2cc(Cl)c(O)c(Cl)n2)s1` [Example 92] returned an HSD17B2 fold selectivity on HSD17B2 of 44 fold. At HSD17B14, the HSD17B14 fold selectivity is on record as over 215 fold. On HSD17B13, the inhibitory constant (Ki) is 0.05 to 0.1 µM.

`CN(C)Cc1ccc(F)c(-c2nc(C(=O)NCc3ccccc3C(F)(F)F)c(NC(=O)c3cc(F)c(O)c(Cl)c3)s2)c1` [Example 94]: at HSD17B2, the HSD17B2 fold selectivity is given as 1270 fold. On HSD17B14, this compound showed an HSD17B14 fold selectivity of over 1250 fold. For the same compound, at HSD17B13, the inhibition constant (Ki) is at most 0.05 µM.

At HSD17B2, `N#Cc1cccc(-c2nc(C(=O)NCc3ccccc3C(F)(F)F)c(NC(=O)c3cc(Cl)c(O)c(Cl)c3)s2)c1` [Example 95] had an HSD17B2 fold selectivity of 2150 fold. The compound also had an HSD17B14 fold selectivity at HSD17B14 of over 1640 fold. Further, the inhibition constant (Ki) at HSD17B13 is at most 0.05 µM.

For `N#Cc1cccc(-c2nc(C(=O)NCc3ccccc3C(F)(F)F)c(NC(=O)c3cc(F)c(O)c(Cl)c3)s2)c1` [Example 96], the HSD17B2 fold selectivity at HSD17B2 is given as 985 fold. The compound further showed an HSD17B14 fold selectivity at HSD17B14 of over 2000 fold. Besides, on HSD17B13, the inhibitory constant (Ki) was at most 0.05 µM.

Consider `O=C(Nc1sc(-c2cnccn2)nc1C(=O)NCc1ccccc1C(F)(F)F)c1cc(Cl)c(O)c(Cl)n1` [Example 101], for which, on HSD17B14, the HSD17B14 fold selectivity is given as over 142 fold. In addition, at HSD17B13, the inhibition constant Ki was at most 0.05 µM.

Take `CC(NC(=O)c1nc(-c2cccnc2)sc1NC(=O)c1cc(Cl)c(O)c(Cl)c1)c1ccccc1C(F)(F)F` (stereo not shown) [Example 102]: the HSD17B14 fold selectivity at HSD17B14 is on record as over 1230 fold. Further, the Ki on HSD17B13 is at most 0.05 µM.

As to `CC(NC(=O)c1nc(-c2cccnc2)sc1NC(=O)c1cc(Cl)c(O)c(Cl)n1)c1ccccc1C(F)(F)F` (stereo not shown) [Example 103], at HSD17B14, the HSD17B14 fold selectivity was over 1850 fold. Also, the Ki on HSD17B13 is at most 0.05 µM.

`CS(=O)(=O)c1ccc(-c2nc(C(=O)NCc3ccccc3C(F)(F)F)c(NC(=O)c3cc(Cl)c(O)c(Cl)c3)s2)cc1` [Example 104]: the HSD17B2 fold selectivity on HSD17B2 turned out to be 444 fold. On HSD17B14, this compound gave an HSD17B14 fold selectivity of 357 fold. For the same compound, on HSD17B13, the Ki was at most 0.05 µM.
